test: Metabolism by recombinant human NAD(P)H:quinone oxidoreductase (NQO1) was evaluated; format: ADME

SMILES	NADH oxidation [µM/min/mg]
COC1=CC(=O)c2nc(-c3ccccc3)ccc2C1=O	28.8
COC1=CC(=O)c2nc(-c3cccs3)ccc2C1=O	32.1
COC1=CC(=O)c2nc(-c3ccc4ccccc4c3)ccc2C1=O	14
COC1=CC(=O)c2nc(-c3ccc(C)cn3)ccc2C1=O	45.7
COC1=CC(=O)c2ncccc2C1=O	58.7
COC1=CC(=O)c2nc(-c3cc4ccccc4o3)ccc2C1=O	33.3
COC1=CC(=O)c2nc(-c3cccc4ccccc34)ccc2C1=O	25.1
COC1=CC(=O)c2nc(-c3ccccn3)ccc2C1=O	50.5
COC1=CC(=O)c2c(cc(C)n2C)C1=O	5.31
COC1=CC(=O)c2nc(-c3ccc(C)cc3)ccc2C1=O	19.2
COC1=CC(=O)c2nc(-c3ccc(-c4ccccc4)cc3)ccc2C1=O	4.75
O=C1C(N2CCCC2)=CC(=O)c2ncccc21	26.2
COC1=CC(=O)c2nc(Cl)ccc2C1=O	100
COC1=C(N)C(=O)c2nc(-c3nc(C(=O)O)c(C)c(-c4ccc(OC)c(OC)c4O)c3N)ccc2C1=O [STREPTONIGRIN]	47.4

— ChEMBL document CHEMBL1131818, “Novel quinolinequinone antitumor agents: structure-metabolism studies with NAD(P)H:quinone oxidoreductase (NQO1)” (Bioorg Med Chem Lett, 1999)
